Reference: patent publication US20100063046A1, “TETRACYCLIC IMIDAZOLE ANALOGS” (priority 2006, published 2010)

B1: 8762NT: DNA oligonucleotide from human rDNA non-template strand, CGGAGGGCGCGCGGGTCGGGGCGGCGGCGGCGGCGGCGGTGGCGGCGGCGGCGGGGGCGGCGGG (nucleic acid)
DNA: CGGAGGGCGCGCGGGTCGGGGCGGCGGCGGCGGCGGCGGTGGCGGCGGCGGCGGGGGCGGCGGG
modifications: chemistry not given here

Target: T1, nucleolin (Homo sapiens, UniProt P19338)
T1 construct: without the N-terminal acidic stretches domain
Experiment: Nucleolin/nucleic acid ligand interaction assay (gel retardation)
Type: binding
Parameters: key: A “+” represents the weakest nucleolin affinity; a “++++” represents the strongest nucleolin affinity
Details: relative affinity of each nucleic acid ligand for recombinant nucleolin (MBP fusion, ~250 nM); 32P-labeled ligand; 6% DNA retardation gel
Experimental: The following assays can be used to assess the effects of compounds on interactions between nucleolin and nucleic acid ligands capable of forming quadruplex (QP) and hairpin (HP) secondary structures. Nucleic acid ligands tested were a cMyc QP DNA having nucleotide sequence 5′-[…]-3′ and a HP pre-rRNA region to which nucleolin binds, having the sequence 5′-[…]-3′. In the assays, recombinant nucleolin (˜250 nM), which has been fused to maltose binding protein, and has the sequence under accession number NM_005381 without the N-terminal acidic stretches domain, is incubated with each of the two ^32P-labeled nucleic acid ligands (10 or 250 nM). Nucleolin and the nucleic acid ligand are incubated in the presence or absence of a test compound 7 in an incubation buffer (12.5 mM Tris, pH 7.6, 60 mM KCl, 1 mM MgCl2, 0.1 mM EDTA, 1 mM DTT, 5% glycerol, 0.1 mg/ml BSA) for 30 minutes at room temperature.
The resulting complexes are separated on a 6% DNA retardation gel using 0.5×TBE with 20 mM KCl as a running buffer. The assay also can be conducted using nucleic acid ligands derived from human ribosomal DNA, whereby one can identify a compound that selectively modulates formation of a nucleolin/nucleic acid complex that depends on the conformation of the nucleic acid. Sequences of suitable nucleic acids are shown in the preceding example. […] A “+” represents the weakest nucleolin affinity and a “++++” represents the strongest nucleolin affinity. […] Using nucleic acids such as these having known conformational properties, one can identify a compound such as the compounds described herein that selectively interferes with binding of nucleolin to a particular quadruplex structure.

T1 sequence (P19338 284-710 limits assumed): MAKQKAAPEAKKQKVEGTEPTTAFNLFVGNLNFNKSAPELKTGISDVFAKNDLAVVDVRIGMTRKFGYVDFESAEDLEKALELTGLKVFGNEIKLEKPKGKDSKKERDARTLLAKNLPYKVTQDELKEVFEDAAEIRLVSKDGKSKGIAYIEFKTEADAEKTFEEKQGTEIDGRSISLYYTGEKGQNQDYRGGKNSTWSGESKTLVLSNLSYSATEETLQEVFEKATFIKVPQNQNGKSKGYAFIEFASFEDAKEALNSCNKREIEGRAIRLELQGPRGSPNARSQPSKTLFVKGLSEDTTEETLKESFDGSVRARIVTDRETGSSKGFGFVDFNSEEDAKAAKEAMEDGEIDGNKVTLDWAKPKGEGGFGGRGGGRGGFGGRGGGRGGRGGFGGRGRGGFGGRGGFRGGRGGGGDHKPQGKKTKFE

Molecule	Affinity for Nucleolin
6183NT: DNA oligonucleotide from human rDNA non-template strand, GGGTCGGGGGCGGTGGTGGGCCCGCGGGGG (DNA, backbone and methylation of C not given here) [Example 6183NT]	+
7733T: DNA oligonucleotide from human rDNA template strand, GGGAGGGGCACGGGCCGGGGGCGGGACGGG (DNA, backbone and methylation of C not given here) [Example 7733T]	+
8511NT: DNA oligonucleotide from human rDNA non-template strand, GGGGGTGGGCGGGCGGGGCCGGGGGTGGG (DNA, backbone and methylation of C not given here) [Example 8511NT]	++++
8749NT: DNA oligonucleotide from human rDNA non-template strand, GGGAGGGCGCGCGGGTCGGGG (chemistry not given here) [Example 8749NT]	+
11028NT: DNA oligonucleotide from human rDNA non-template strand, GGGGCGCGGCGGGGGGAGAAGGGTCGGGGCGGCAGGGG (DNA, backbone and methylation of C not given here) [Example 11028NT]	+
B1	++++
